This assay can be described thus: Biochemical Assay: Test compounds were placed in a Greiner Bio-One (Monroe, N.C.) 1536-well black solid bottom assay plate. 200 millimolar (mM) Tris HCl, pH 7.4, 100 micromolar (μM) EDTA and 0.01% TWEEN-20™, final concentration, was used as the assay buffer. The LDHA reagent was 2 nanomolar (nM) Human LDHA (Meridian Life Science, Inc., Memphis, Tenn.), final concentration, in assay buffer.

“And” between values parts separate entries of the source, which are not always exact repeats. Equal values may be shown once.

The IC50 is the concentration needed to halve the response being measured. A higher IC50 goes with weaker potency in that assay.

Compound `Cc1c(Cc2ccc(S(N)(=O)=O)cc2)c(-c2ccccc2)nn1-c1nc(C(=O)O)cs1` came in with an IC50 of under 100 nM.
Under `NS(=O)(=O)c1ccc(Cc2c(-c3cccc(OCc4ccccc4)c3)nn(-c3nc(C(=O)O)cs3)c2CC2CC2)cc1` stands under 100 nM.
Regarding `NS(=O)(=O)c1ccc(Cc2c(-c3ccc(F)c(C#CC(F)F)c3)nn(-c3nc(C(=O)O)cs3)c2CC2CC2)cc1F`, the IC50 was under 100 nM.
Under `NS(=O)(=O)c1ccc(Cc2c(-c3cccc(N4CCC(F)(F)C4)c3)nn(-c3nc(C(=O)O)cs3)c2CC2CC2)cc1F` stands “in the range around 29000 nM”; under `O=C(O)c1csc(-n2nc(-c3ccccc3)cc2C(F)(F)F)n1`, “in the range around 29000 nM”.
Under `NS(=O)(=O)c1ccc(NCc2cn(-c3nc(C(=O)O)cs3)nc2-c2ccccc2)cc1` stands over 57000 nM.
Then `NS(=O)(=O)c1ccc(Cc2c(CC3CC3)nn(-c3nc(C(=O)O)cs3)c2-c2ccc(F)c(-c3ccc(F)cc3)c2)c(F)c1`, with “in the range around 29000 nM”; and `NS(=O)(=O)c1ccc(Cc2c(C3CC3)nn(-c3nc(C(=O)O)cs3)c2-c2cccc(-c3ccc(F)cc3)c2)cc1F`, with “in the range around 29000 nM”; and `NS(=O)(=O)c1ccc(Cc2c(-c3ccc(F)c(C#CCN4CCOCC4)c3)nn(-c3nc(C(=O)O)cs3)c2CC2CC2)cc1F`, with under 100 nM.
Consider `NS(=O)(=O)c1ccc(Cc2c(-c3cccc(-c4ccc(F)cc4)c3)nn(-c3nc(C(=O)O)cs3)c2C2CC2)c(F)c1`, for which the IC50 was under 100 nM.
Then `O=C(O)c1csc(-n2nc(-c3ccccc3)cc2O)n1`, with over 57000 nM; and `NS(=O)(=O)c1ccc(Cc2c(-c3ccc(F)c(-c4ccccc4)c3)nn(-c3nc(C(=O)O)cs3)c2CC2CC2)cc1`, with under 100 nM.
Then `NS(=O)(=O)c1ccc(Cc2c(-c3ccc(F)c(C#CC4CCOC4)c3)nn(-c3nc(C(=O)O)cs3)c2CC2CC2)cc1F` (centres undefined), with under 100 nM; and `Cc1noc(C)c1-c1cc(-c2c(Cc3ccc(S(N)(=O)=O)cc3F)c(CC3CC3)nn2-c2nc(C(=O)O)cs2)ccc1F`, with over 57000 nM; and `NS(=O)(=O)c1ccc(Cc2c(-c3cccc(OC4CCCC4)c3)nn(-c3nc(C(=O)O)cs3)c2CC2CC2)c(F)c1`, with under 100 nM.
Under `COc1cc(-c2c(Cc3ccc(S(N)(=O)=O)cc3)c(CC3CC3)nn2-c2nc(C(=O)O)cs2)ccc1F` stands “in the range around 29000 nM”; under `N#CC#Cc1cc(-c2nn(-c3nc(C(=O)O)cs3)c(CC3CC3)c2Cc2ccc(S(N)(=O)=O)c(F)c2)ccc1F`, under 100 nM.
Compound `NS(=O)(=O)c1ccc(Cc2c(-c3ccc(F)c(-c4cccc(F)c4)c3)nn(-c3nc(C(=O)O)cs3)c2CC2CC2)c(F)c1` yielded an IC50 of under 100 nM.
Then `CCOC(=O)c1csc(-n2nc(CC3CC3)c(Cc3ccc(S(N)(=O)=O)c(F)c3)c2-c2ccc(F)c(-c3cccc(F)c3)c2)n1`, with over 57000 nM.
In the case of `NS(=O)(=O)c1ccc(Cc2c(CC3CC3)nn(-c3nc(C(=O)O)cs3)c2-c2ccc(F)c(-c3ccc(C4CC4)cc3)c2)cc1`, the IC50 entry is “in the range around 29000 nM”.
`NS(=O)(=O)c1ccc(Cc2c(-c3ccc(F)c(C4=CCNCC4)c3)nn(-c3nc(C(=O)O)cs3)c2CC2CC2)cc1F` returned a 50% inhibitory concentration (IC50) of under 100 nM.
`NS(=O)(=O)c1ccc(Cc2c(-c3ccc(F)c(C#CC4(F)CCOC4)c3)nn(-c3nc(C(=O)O)cs3)c2CC2CC2)cc1F` (centres undefined): the concentration for half-maximal inhibition (IC50) was under 100 nM.
Under `COc1cccc(-c2cc(-c3c(Cc4ccc(S(N)(=O)=O)cc4)c(CC4CC4)nn3-c3nc(C(=O)O)cs3)ccc2F)c1` stands over 57000 nM; under `CN1CCC(c2cc(-c3nn(-c4nc(C(=O)O)cs4)c(CC4CC4)c3Cc3ccc(S(N)(=O)=O)c(F)c3)ccc2F)CC1`, under 100 nM.
Under `NS(=O)(=O)c1ccc(Cc2c(C3CC3)nn(-c3nc(C(=O)O)cs3)c2-c2cccc(-c3cccc(F)c3)c2)c(F)c1` stands “in the range around 29000 nM”; under `CC(C)C#Cc1cc(-c2nn(-c3nc(C(=O)O)cs3)c(CC3CC3)c2Cc2ccc(S(N)(=O)=O)c(F)c2)ccc1F`, under 100 nM; under `NS(=O)(=O)c1ccc(Cc2c(-c3ccc(F)c(C4C5CC6CC(C5)CC4C6)c3)nn(-c3nc(C(=O)O)cs3)c2CC2CC2)cc1F` (centres undefined), “in the range around 550 nM”.
Compound `NS(=O)(=O)c1ccc(Cc2c(-c3ccc(F)c(C#CCCO)c3)nn(-c3nc(C(=O)O)cs3)c2CC2CC2)cc1F` gave a 50% inhibitory concentration (IC50) of under 100 nM.
Then `NS(=O)(=O)c1ccc(Cc2c(-c3ccc(F)c(C#CC4CCCC4)c3)nn(-c3nc(C(=O)O)cs3)c2CC2CC2)cc1F`, with under 100 nM.
Then `COCC#Cc1cc(-c2nn(-c3nc(C(=O)O)cs3)c(CC3CC3)c2Cc2ccc(S(N)(=O)=O)c(F)c2)ccc1F`, with under 100 nM; and `NS(=O)(=O)c1ccc(Cc2c(CC(F)(F)F)nn(-c3nc(C(=O)O)cs3)c2-c2cccc(-c3ccccc3)c2)cc1`, with “in the range around 29000 nM”; and `NS(=O)(=O)c1ccc(Cc2c(-c3ccc(F)c(C(F)(F)F)c3)nn(-c3nc(C(=O)O)cs3)c2CC2CC2)cc1F`, with under 100 nM.
The compound `CCOC(=O)c1csc(-n2nc(-c3cccc(-c4ccccc4)c3)c(Cc3ccc(S(N)(=O)=O)cc3)c2C2(C(F)(F)F)CC2)n1` gave an IC50 of over 57000 nM.
Then `Cn1cncc1C#Cc1cc(-c2nn(-c3nc(C(=O)O)cs3)c(CC3CC3)c2Cc2ccc(S(N)(=O)=O)c(F)c2)ccc1F`, with under 100 nM.
Under `NS(=O)(=O)c1ccc(Cc2c(-c3cccc(-c4cccc(F)c4)c3)nn(-c3nc(C(=O)O)cs3)c2C(F)(F)F)cc1` stands under 100 nM; under `NS(=O)(=O)c1ccc(Cc2c(-c3ccc(F)c(C4=CCN(C(=O)C5CC5)CC4)c3)nn(-c3nc(C(=O)O)cs3)c2CC2CC2)cc1F`, under 100 nM; under `CC(C)c1ccc(-c2cc(-c3c(Cc4ccc(S(N)(=O)=O)cc4)c(CC4CC4)nn3-c3nc(C(=O)O)cs3)ccc2F)cc1`, “in the range around 29000 nM”.
Under `Cc1ccc(-c2cc(-c3nn(-c4nc(C(=O)O)cs4)c(CC4CC4)c3Cc3ccc(S(N)(=O)=O)cc3)ccc2F)cc1` stands under 100 nM.
In turn, `CN1CC=C(c2cc(-c3nn(-c4nc(C(=O)O)cs4)c(CC4CC4)c3Cc3ccc(S(N)(=O)=O)c(F)c3)ccc2F)CC1` yielded an IC50 of under 100 nM.
Under `Cc1ccc(-c2cccc(-c3nn(-c4nc(C(=O)O)cs4)c(CC4CC4)c3Cc3ccc(S(N)(=O)=O)cc3F)c2)cc1` stands under 100 nM; under `CCOC(=O)c1csc(-n2nc(-c3cccc(-c4ccc(C)cc4)c3)c(Cc3ccc(S(N)(=O)=O)c(F)c3)c2CC2CC2)n1`, “in the range around 29000 nM and > 57000 nM”; under `NS(=O)(=O)c1ccc(Oc2c(-c3ccccc3)nn(-c3nc(C(=O)O)cs3)c2C2CC2)cc1`, under 100 nM.
Then `CCOC(=O)c1csc(-n2nc(CC3CC3)c(Cc3ccc(S(N)(=O)=O)cc3F)c2-c2ccc(F)c(-c3cccc(F)c3)c2)n1`, with over 57000 nM.
On to `NS(=O)(=O)c1ccc(Cc2c(-c3cccc(N4CCOCC4)c3)nn(-c3ncc(C(=O)O)s3)c2CC2CC2)cc1F`, for which the IC50 is under 100 nM.
Under `Cc1ccc(-c2cccc(-c3nn(-c4nc(C(=O)O)cs4)c(C4CC4)c3Cc3ccc(S(N)(=O)=O)cc3F)c2)cc1` stands under 100 nM.
Then `NS(=O)(=O)c1ccc(Cc2c(-c3ccc(F)c(-c4cccc(F)c4)c3)nn(-c3nc(C(=O)O)cs3)c2CC2CC2)cc1F`, with under 100 nM; and `NS(=O)(=O)c1ccc(Cc2cn(-c3nc(C(=O)O)cs3)nc2-c2ccccc2)cc1`, with under 100 nM; and `C/C=C/c1cc(-c2nn(-c3nc(C(=O)O)cs3)c(CC3CC3)c2Cc2ccc(S(N)(=O)=O)c(F)c2)ccc1F`, with under 100 nM.
Then `Cc1ccc(-c2cc(-c3c(Cc4ccc(S(N)(=O)=O)c(F)c4)c(CC4CC4)nn3-c3nc(C(=O)O)cs3)ccc2F)s1`, with over 57000 nM; and `CNS(=O)(=O)c1ccc(Cc2c(-c3ccc(F)c(-c4cccc(F)c4)c3)nn(-c3nc(C(=O)O)cs3)c2CC2CC2)cc1F`, with “in the range around 550 nM”; and `NS(=O)(=O)c1ccc(Cc2c(-c3cccc(OC4CCCC4)c3)nn(-c3nc(C(=O)O)cs3)c2CC2CC2)cc1`, with under 100 nM.
The compound `COc1ccc(-c2cc(O)n(-c3nc(C(=O)O)cs3)n2)cc1` had an IC50 of over 57000 nM.
Take `NS(=O)(=O)c1ccc(Cc2c(CC3CC3)nn(-c3nc(C(=O)O)cs3)c2-c2cccc(OCc3ccccc3)c2)cc1`: the IC50 entry was “in the range around 29000 nM”.
`NS(=O)(=O)c1ccc(Cc2c(-c3ccc(F)c(-c4ccc(F)cc4)c3)nn(-c3nc(C(=O)O)cs3)c2C2CC2)c(F)c1` yielded an IC50 of under 100 nM.
Then `COc1cccc(-c2cc(-c3nn(-c4nc(C(=O)O)cs4)c(CC4CC4)c3Cc3ccc(S(N)(=O)=O)cc3)ccc2F)c1`, with under 100 nM; and `NS(=O)(=O)c1cccc(Cc2c(-c3ccc(F)c(-c4cccc(F)c4)c3)nn(-c3nc(C(=O)O)cs3)c2CC2CC2)c1`, with “in the range around 29000 nM”.
Under `NS(=O)(=O)c1ccc(Cc2c(C3(C(F)(F)F)CC3)nn(-c3nc(C(=O)O)cs3)c2-c2cccc(-c3ccccc3)c2)cc1F` stands “in the range around 29000 nM”; under `CCOC(=O)c1csc(-n2nc(-c3cccc(-c4ccccc4)c3)c(Cc3ccc(S(N)(=O)=O)c(F)c3)c2CC2CC2)n1`, over 57000 nM; under `CC#Cc1cc(-c2nn(-c3nc(C(=O)O)cs3)c(CC3CC3)c2Cc2cccc(S(N)(=O)=O)c2)ccc1F`, under 100 nM.
Under `COc1cccc(-c2cc(-c3nn(-c4nc(C(=O)O)cs4)c(CC4CC4)c3Cc3ccc(S(N)(=O)=O)cc3F)ccc2F)c1` stands under 100 nM; under `NS(=O)(=O)c1ccc(Cc2c(-c3ccc(F)c(-c4ccccc4)c3)nn(-c3nc(C(=O)O)cs3)c2CC2CC2)cc1F`, under 100 nM.
`C#Cc1cc(-c2nn(-c3nc(C(=O)O)cs3)c(CC3CC3)c2Cc2ccc(S(N)(=O)=O)c(F)c2)ccc1F` yielded an IC50 of under 100 nM.
Then `NS(=O)(=O)c1ccc(Cc2c(CC3CC3)nn(-c3nc(C(=O)O)cs3)c2-c2ccc(F)c(Br)c2)cc1`, with “in the range around 29000 nM”.
Then `CCOC(=O)c1csc(-n2nc(-c3ccc(F)c(-c4cccc(OC)c4)c3)c(Cc3ccc(S(N)(=O)=O)cc3F)c2CC2CC2)n1`, with over 57000 nM.

These data come from ChEMBL document CHEMBL5728971, “Small molecule inhibitors of lactate dehydrogenase and methods of use thereof” (2022).
